Laboratory results taken from PMC8413292, “Small-molecule polymerase inhibitor protects non-human primates from measles and reduces shedding” (Nature Communications, 2021).
Values joined by “and” are separate entries in the source; they are usually repeats but may differ in a detail not shown here. Equal values may be shown once.

Columns and labels:
[1] = system: MeV/NewJersey.USA/94/1 (genotype D6); assay: PK and PD recapitulation ex vivo in MeV-infected human PBMCs, progeny virus titer (TCID50); assay type: cell-based, Measles virus in human PBMCs; conditions: for Virus titers: hPBMCs, individual repeats; for Mean, Transform of Virus Titer: n = 4
Description: Human peripheral blood mononuclear cells (hPBMCs) were infected (MOI = 0.1 TCID50 units per cell) in a 24-well plate format with MeV/NewJersey.USA/94/1 (genotype D6) in the presence of ERDRP-0519 or DMSO (0.1%). […] Cells were collected 48 h after infection and virus was subsequently harvested after two freeze thaw cycles. Released virus titers were then determined by limited dilution method (TCID50) on Vero/hSLAM cells. Four biological repeats were used for each ex vivo PK recapitulation and three biological repeats were used for DMSO-treated hPBMCs.
PK and PD recapitulation in human blood mononuclear cells
To test whether viral replication in […]
circumstances, we performed an in vitro recapitulation experiment. For this, we infected human PBMCs in a 24-well plate format with MeV/NewJersey.USA/94/1 (genotype D6) at a multiplicity of infection of 0.1 TCID 50 units per cell. To mimic the ERDRP-0519 serum concentration profile in vitro , we adjusted the drug concentrations in our PBMC cultures multiple times during the incubation period as shown by the colored areas in Fig. 1c (recapitulating a once per day treatment regimen, q.d.) and Fig. 1d (recapitulating a twice daily treatment regimen, b.i.d.) and summarized in Supplementary Table 3. The concentration changes were applied for a total of 48 h to the infected PBMC cultures (a total of two cycles of the q.d. regimen and four cycles of the b.i.d. regimen, assuming no drug accumulation during repeated treatment). As controls, infected PBMCs were incubated in the presence of vehicle only (0.1 % DMSO) or with a constant concentration of 1.5 µM of ERDRP-0519 over the whole period of 48 h post infection. Cells were collected 48 hours after infection and virus was subsequently harvested after two freeze thaw cycles. Released virus titers were then determined by limited dilution method (TCID 50) on Vero/hSLAM cells (Fig. 1e). Four biological repeats were used for each ex vivo PK recapitulation and three biological repeats were used for DMSO-treated hPBMCs.

[2] = system: MV/FrankfurtMain.DEU/17.11 (genotype D8); assay: PBMC-associated viremia titers (limited dilution, TCID50/10^6 PBMCs); assay type: in vivo, squirrel monkeys (Saimiri sciureus); conditions: for Viral titers: individual animals
Description: White blood cell counts, viral load quantification in PBMCs, and quantification of neutralizing antibody titers were performed as follows: for white blood cell counts, blood was diluted 1:100 in 3% acetic acid and cells were counted using a Neubauer chamber. For viral load quantification in PBMCs, blood was centrifuged at 3000 rpm for 15 min and serum was frozen at −20 °C until further use. Red blood cell lysis was performed and the remaining PBMCs were counted using a Neubauer chamber. Viral titers in PBMCs were quantified in quadruplicates using limited dilution method and calculated as TCID50/10^6 PBMCs. Neutralizing antibody titers were quantified by incubating MeV with 2-fold serial dilutions of the respective serum for 20 min at room temperature in quadruplicates. Vero/hSLAM cells were added and incubated for 3 days at 37 °C. Neutralizing antibody titers are expressed as the reciprocal of the highest serum dilution showing no signs of infection. For virus titration from throat swabs, swabs were placed in 150 μl DMEM with 3% penicillin/streptomycin and the titer was quantified by limited dilution method.

## Cn1nc(C(F)(F)F)cc1C(=O)Nc1ccc(S(=O)(=O)N2CCCC[C@H]2CCN2CCOCC2)cc1 [ERDRP-0519]
[1]; continuous exposure of MeV-infected hPBMCs to 1.5 µM, 48 h
  reduction in progeny virus titer: greater than three orders of magnitude reduction
[1]; 48 h, b.i.d. 50 mg/kg simulated profile
  Virus titers: 1.80E+02 TCID50/10^6 PBMCs and 3.21E+02 TCID50/10^6 PBMCs and 4.27E+02 TCID50/10^6 PBMCs and 7.60E+01 TCID50/10^6 PBMCs
[1]; 48 h, constant 1.5 μM
  Virus titers: 7.60E+01 TCID50/10^6 PBMCs and 5.70E+01 TCID50/10^6 PBMCs and 4.27E+01 TCID50/10^6 PBMCs
[1]; 48 h, q.d. 50 mg/kg simulated profile
  Virus titers: 1.80E+03 TCID50/10^6 PBMCs and 2.40E+03 TCID50/10^6 PBMCs and 3.21E+03 TCID50/10^6 PBMCs and 1.35E+03 TCID50/10^6 PBMCs
[1]; once daily recapitulation
  Mean, Transform of Virus Titer: 3.318
[1]; once daily vs. trough
  Mean Diff., Transform of Virus Titer: 1.531
[1]; once daily vs. twice daily
  Mean Diff., Transform of Virus Titer: 0.9998
[1]; once daily vs. vehicle
  Mean Diff., Transform of Virus Titer: -1.854
[1]; q.d. and b.i.d. regimen recapitulated ex vivo in hPBMCs, 48 h
  progeny MeV titers versus untreated controls: significantly (p < 0.0001) lower than in untreated controls
[1]; trough (constant 1.5 µM)
  Mean, Transform of Virus Titer: 1.787
[1]; trough vs. vehicle
  Mean Diff., Transform of Virus Titer: -3.385
[1]; twice daily recapitulation
  Mean, Transform of Virus Titer: 2.318
[1]; twice daily vs. trough
  Mean Diff., Transform of Virus Titer: 0.5313
[1]; twice daily vs. vehicle
  Mean Diff., Transform of Virus Titer: -2.853
[2]; day 3 therapeutic administration
  effect on PBMC-associated virus replication: effectively suppressed virus replication
[2]; prophylactic group, day 3
  Viral titers: 1.745 log10(TCID50/106 PBMCs)
[2]; prophylactic group, day 7
  Viral titers: 1.509 log10(TCID50/106 PBMCs) and 0 log10(TCID50/106 PBMCs)
[2]; prophylactic group, day 10
  Viral titers: 1.807 log10(TCID50/106 PBMCs)
[2]; prophylactic group, day 17
  Viral titers: 0.7747 log10(TCID50/106 PBMCs)
[2]; prophylactic group, day 21
  Viral titers: 2.352 log10(TCID50/106 PBMCs)
[2]; prophylactic treatment
  decrease of viremia titers on average compared to untreated animals: up to 250 fold
[2]; prophylactic, Row 1 (1st of 7 time points)
  PBMC Titers, group mean (Mean 2): 0
[2]; prophylactic, Row 2 (2nd of 7 time points)
  PBMC Titers, group mean (Mean 2): 0.2908
[2]; prophylactic, Row 3 (3rd of 7 time points)
  PBMC Titers, group mean (Mean 2): 0.2514
[2]; prophylactic, Row 4 (4th of 7 time points)
  PBMC Titers, group mean (Mean 2): 0.3012
[2]; prophylactic, Row 5 (5th of 7 time points)
  PBMC Titers, group mean (Mean 2): 0
[2]; prophylactic, Row 6 (6th of 7 time points)
  PBMC Titers, group mean (Mean 2): 0.1283
[2]; prophylactic, Row 7 (7th of 7 time points)
  PBMC Titers, group mean (Mean 2): 0.3917
[2]; therapeutic (d3) group, day 3
  Viral titers: 1.097 log10(TCID50/106 PBMCs) and 1.77 log10(TCID50/106 PBMCs)
[2]; therapeutic (d3) group, day 7
  Viral titers: 0.7905 log10(TCID50/106 PBMCs) and 1.004 log10(TCID50/106 PBMCs) and 2.281 log10(TCID50/106 PBMCs) and 0 log10(TCID50/106 PBMCs)
[2]; therapeutic (d3) group, day 10
  Viral titers: 1.35 log10(TCID50/106 PBMCs) and 0.8861 log10(TCID50/106 PBMCs) and 2.045 log10(TCID50/106 PBMCs)
[2]; therapeutic (d3) group, day 14
  Viral titers: 0.7375 log10(TCID50/106 PBMCs)
[2]; therapeutic (d3), Row 1 (1st of 7 time points)
  PBMC Titers, group mean (Mean 2): 0
[2]; therapeutic (d3), Row 2 (2nd of 7 time points)
  PBMC Titers, group mean (Mean 2): 0.4783
[2]; therapeutic (d3), Row 3 (3rd of 7 time points)
  PBMC Titers, group mean (Mean 2): 0.6785
[2]; therapeutic (d3), Row 4 (4th of 7 time points)
  PBMC Titers, group mean (Mean 2): 0.7141
[2]; therapeutic (d3), Row 5 (5th of 7 time points)
  PBMC Titers, group mean (Mean 2): 0.1233
[2]; therapeutic (d3), Row 6 (6th of 7 time points)
  PBMC Titers, group mean (Mean 2): 0
[2]; therapeutic (d3), Row 7 (7th of 7 time points)
  PBMC Titers, group mean (Mean 2): 0
[2]; therapeutic (d7) group, day 3
  Viral titers: 0.6162 log10(TCID50/106 PBMCs) and 0.7122 log10(TCID50/106 PBMCs) and 0.8794 log10(TCID50/106 PBMCs) and 0.6642 log10(TCID50/106 PBMCs) and 1.712 log10(TCID50/106 PBMCs)
[2]; therapeutic (d7) group, day 7
  Viral titers: 2.108 log10(TCID50/106 PBMCs) (2×) and 1.9431 log10(TCID50/106 PBMCs) and 1.854 log10(TCID50/106 PBMCs) and 1.9914 log10(TCID50/106 PBMCs) and 1.699 log10(TCID50/106 PBMCs)
[2]; therapeutic (d7) group, day 10
  Viral titers: 2.513 log10(TCID50/106 PBMCs) and 2.092 log10(TCID50/106 PBMCs) and 2.1549 log10(TCID50/106 PBMCs) and 2.936 log10(TCID50/106 PBMCs) and 2.626 log10(TCID50/106 PBMCs) and 2.438 log10(TCID50/106 PBMCs)
[2]; therapeutic (d7) group, day 14
  Viral titers: 0.7959 log10(TCID50/106 PBMCs) and 0.3979 log10(TCID50/106 PBMCs) and 1.735 log10(TCID50/106 PBMCs)
[2]; therapeutic (d7) group, day 17
  Viral titers: 1.174 log10(TCID50/106 PBMCs) and 0.6271 log10(TCID50/106 PBMCs)
[2]; therapeutic (d7), Row 1 (1st of 7 time points)
  PBMC Titers, group mean (Mean 2): 0
